Columns and labels:
[1] = biological target: T1, XOR (Bos taurus, UniProt P80457); assay: XOR kinetics with phenazine methosulfate / cytochrome c reduction (550 nm); format: biochemical, bovine; conditions: for Types of inhibition / Ki: XOR; for Types of inhibition: PMS
T1 construct: Bovine milk was obtained from the animal farm of the Nippon Veterinary and Life Science University; from tissue; host or cells: bovine milk
Procedure: Therefore, phenazine methosulfate was used to induce direct, rapid reoxidation of the molybdenum center ([22], [23]).
(§1) Bovine milk was obtained from the animal farm of the Nippon Veterinary and Life Science University. […] The dehydrogenase form of the enzyme (XDH) was obtained by reacting XO immediately upon purification with 5 mM DTT at pH 8.5, 25 °C for 1 h. XO and XDH assays were carried out at 25 °C under aerobic conditions. […] A total of 500 μM β-NAD^+ was added to the same reaction solution for XDH activity. Physiological conditions such as pH 7.4 (0.1 M potassium phosphate buffer (KPB), 0.2 mM EDTA) and the addition of 50 μM β-NADH were also used. […] In addition, the enzyme reaction solution was quenched with perchloric acid and neutralized with K2CO3, with products analyzed using HPLC as described below. Spectrophotometric data were analyzed using UV-Probe software Ver. 2.70 or LabSolutions UV-Vis Ver. […] Kinetic parameters were determined from nonlinear curve fits of raw data using GraphPad Prism 9 software.
(§2) A295 indicates the concentration of uric acid yielded by XOR. […] A295 indicates the concentration of uric acid yielded by XOR. Figure S2. The XOR inhibition mode of oxypurinol.A–G, Lineweaver-Burk plots were generated to visualize data and estimated the inhibition patterns. Data are representative of least two independent experiments. […] Figure S3. […] B, mode of inhibition of oxypurinol on the inosine degradation reaction of PNP. […] 0, 250, 375, 500, 750 and 1000 μM of oxypurinol were used. […] The rate of NAD^+ conversion to NADH was measured at A340 nm.

[2] = biological target: XDH (Bos taurus, UniProt P80457); assay: initial-velocity steady-state kinetics of XDH, NAD+ as electron acceptor; format: biochemical, bovine; parameters: Bovine milk was obtained from the animal farm of the Nippon Veterinary and Life Science University; from tissue; host or cells: bovine milk; conditions: for Types of inhibition / Ki: XDH; for Types of inhibition: NAD+
Chain of XDH (P80457 whole entry): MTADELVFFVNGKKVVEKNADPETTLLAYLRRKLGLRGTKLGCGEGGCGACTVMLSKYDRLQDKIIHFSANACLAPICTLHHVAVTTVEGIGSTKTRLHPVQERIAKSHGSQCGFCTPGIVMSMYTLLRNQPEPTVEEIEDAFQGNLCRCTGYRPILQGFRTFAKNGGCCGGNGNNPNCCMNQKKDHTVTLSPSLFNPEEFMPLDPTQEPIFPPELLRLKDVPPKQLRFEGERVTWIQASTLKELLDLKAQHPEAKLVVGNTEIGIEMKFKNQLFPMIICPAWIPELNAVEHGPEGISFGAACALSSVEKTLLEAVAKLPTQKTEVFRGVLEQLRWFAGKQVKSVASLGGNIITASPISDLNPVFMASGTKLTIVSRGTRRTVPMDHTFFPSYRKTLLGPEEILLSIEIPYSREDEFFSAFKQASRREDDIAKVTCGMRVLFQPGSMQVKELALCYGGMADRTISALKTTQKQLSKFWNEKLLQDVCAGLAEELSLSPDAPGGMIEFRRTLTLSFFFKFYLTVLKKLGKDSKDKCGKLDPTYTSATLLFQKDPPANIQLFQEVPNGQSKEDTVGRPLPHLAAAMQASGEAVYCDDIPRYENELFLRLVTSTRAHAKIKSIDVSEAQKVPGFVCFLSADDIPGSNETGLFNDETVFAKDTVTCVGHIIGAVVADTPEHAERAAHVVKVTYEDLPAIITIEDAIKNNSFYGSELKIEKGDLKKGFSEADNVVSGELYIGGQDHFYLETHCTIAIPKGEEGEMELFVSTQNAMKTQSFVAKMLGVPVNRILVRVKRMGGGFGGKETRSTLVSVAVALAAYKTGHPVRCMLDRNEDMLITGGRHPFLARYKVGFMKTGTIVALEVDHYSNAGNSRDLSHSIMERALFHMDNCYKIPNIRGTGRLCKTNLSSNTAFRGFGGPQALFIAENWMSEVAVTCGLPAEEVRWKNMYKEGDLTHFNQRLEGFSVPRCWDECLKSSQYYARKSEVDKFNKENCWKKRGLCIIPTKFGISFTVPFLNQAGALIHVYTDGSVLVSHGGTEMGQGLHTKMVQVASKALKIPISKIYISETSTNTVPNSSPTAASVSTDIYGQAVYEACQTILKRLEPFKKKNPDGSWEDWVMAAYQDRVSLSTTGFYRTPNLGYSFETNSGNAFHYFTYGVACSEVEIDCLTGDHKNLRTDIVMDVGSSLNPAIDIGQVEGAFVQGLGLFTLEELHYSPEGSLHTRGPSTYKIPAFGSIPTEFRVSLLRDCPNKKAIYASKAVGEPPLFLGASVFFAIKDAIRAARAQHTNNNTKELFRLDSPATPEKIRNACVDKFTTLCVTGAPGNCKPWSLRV
Procedure: as §1, with “used. The activity was measured by following 295 nm and 340 nm on a UV-1800 or UV1900i spectrophotometer.” for “used.”
as §2

[3] = biological target: T2, XO type enzyme (xanthine oxidase) (Bos taurus, UniProt P80457); assay: time-dependent inhibition of uric acid production from xanthine by XO (A295); format: biochemical, bovine; conditions: for 50% inhibition time of uric acid production / stop time of uric acid production: pH 8.5, 25 °C
T2 construct: Bovine milk was obtained from the animal farm of the Nippon Veterinary and Life Science University; from tissue; host or cells: bovine milk
T2 sequence (P80457 whole entry): as above
Procedure: A295 indicates the concentration of uric acid yielded by XOR. […] Uric acid production was measured at 295 nm at 25 °C.
as §1, with “used. The activity was measured by following 295 nm and 340 nm on a UV-1800 or UV1900i spectrophotometer.” for “used.”

[4] = biological target: XO (Bos taurus, UniProt P80457); assay: oxidation of hypoxanthine to xanthine and uric acid by XO, HPLC time course; format: biochemical, bovine; parameters: Bovine milk was obtained from the animal farm of the Nippon Veterinary and Life Science University; from tissue; host or cells: bovine milk
Chain of XO (P80457 whole entry): as above
Procedure: The rate of NAD^+ conversion to NADH was measured at A340 nm.
as §1, with “used. The activity was measured by following 295 nm and 340 nm on a UV-1800 or UV1900i spectrophotometer.” for “used.”
Purine concentrations were measured using a Shimadzu HPLC system consisting of the CBM-20A controller, LC-20AD pump, SIL-20AC autosampler (set at 4 °C), CTO-20A column oven (set at 40 °C), and SPD-M20A diode array detector. Peak analysis was performed using LC solution software. A SUPELCOSIL LC-18-T column (25 cm × 4.6 mm id 5 μm particle size) was used with the SUPELCOSIL LC-18-T Supelguard guard column separation of purines, using a flow rate was 0.8 ml/min and 10 or 20 μl samples. The mobile phase used was A: 0.1 M KPB and 4 mM tetrabutylammonium hydrogen sulfate (pH 5.5), B: 70% buffer A and 30% methanol (v/v). Gradient conditions were 0 min (0% B), 2 min (0% B), 4 min (30% B), 12 min (60% B), 15 min (100% B), 19 min (100% B), 20 min (0% B), and 30 min (0% B). Detection wavelengths were 254 nm, 268 nm, and 295 nm. The data were analyzed using LabSolutions Ver. 5.97 SP1. All purines were identified by retention time and quantified using an external standard.

[5] = cited from earlier work
[6] = as substrate of XOR, electron acceptor PMS, mean ± S.E.
[7] = as substrate of XDH, electron acceptor NAD+, 340 nm, mean ± S.E.
[8] = xanthine 5 μM, inhibitor 2 μM, XO
[9] = xanthine 10 μM, inhibitor 2 μM, XO
[10] = xanthine 50 μM, inhibitor 2 μM, XO
[11] = xanthine 50 μM, inhibitor 10 μM, XO
[12] = xanthine 50 μM, inhibitor 50 μM, XO
[13] = xanthine 2 μM, inhibitor 2 μM, XO
[14] = xanthine 2 μM, inhibitor 10 μM, XO
[15] = xanthine 5 μM, inhibitor 10 μM, XO

T1 sequence (P80457 whole entry): as above

`Oc1ncnc2[nH]ncc12` [Allopurinol] gave a Km [1, 6] of 3.59 ± 0.45 µM, a kcat [1, 6] of 26.17 ± 1.96 s⁻¹ and a Km [2, 7] of 4.23 ± 0.52 µM. The kcat [2, 7] was 1.83 ± 0.92 s⁻¹, the “effect on uric acid production” value ([3]; 10 μM or 50 μM inhibitor, 50 μM xanthine, XO) was “stops uric acid production immediately” and the “50% inhibition time of uric acid production” value [3, 8] was 1.0 min. For the same molecule, the “stop time of uric acid production” value [3, 8] was 3.0 min, the “50% inhibition time of uric acid production” value [3, 9] was 1.4 min and the “stop time of uric acid production” value [3, 9] was 6.9 min. For the same molecule, the “50% inhibition time of uric acid production” value [3, 10] was 3.8 min, the “stop time of uric acid production” value [3, 10] was 14.9 min and the “50% inhibition time of uric acid production” value [3, 11] was 1.2 min. The “stop time of uric acid production” value [3, 11] was 4.5 min, the “50% inhibition time of uric acid production” value [3, 12] was 0.2 min and the “stop time of uric acid production” value [3, 12] was 0.7 min. For the same molecule, the “time to inhibit conversion of hypoxanthine to xanthine” value ([4]; 10 μM inhibitor, 2.5 μM hypoxanthine, XO, pH 7.4, 25 °C) was “about 5 min”, the “inhibition of conversion of hypoxanthine to xanthine” value ([4]; 50 μM inhibitor, 2.5 μM hypoxanthine, XO) was “inhibition was immediate” and the serum oxypurinol concentrations ([5]; patients receiving 300 mg allopurinol daily for more than 2 weeks) was “greater than 100 μM”.
With `O=c1[nH]c(=O)c2c[nH]nc2[nH]1` [Oxypurinol] the Types of inhibition ([1]; substrate hypoxanthine) was “Competitive”, the Ki ([1]; substrate hypoxanthine, electron acceptor PMS, mean ± S.E.) was 1290 ± 140 nM and the Types of inhibition ([1]; substrate xanthine) was “Competitive”. For the same molecule, the Ki ([1]; substrate xanthine, electron acceptor PMS, mean ± S.E.) was 1650 ± 240 nM, the Types of inhibition ([2]; substrate hypoxanthine, 340 nm) was “Competitive” and the Ki ([2]; substrate hypoxanthine, electron acceptor NAD+, 340 nm, mean ± S.E.) was 3.15 ± 0.22 µM. The Types of inhibition ([2]; substrate xanthine, 295 nm) was “Competitive”, the Ki ([2]; substrate xanthine, electron acceptor NAD+, 295 nm, mean ± S.E.) was 4.6 ± 0.87 µM and the mode of inhibition ([3]; 2 μM xanthine, 0.1 M KPB pH 7.4) was “strictly competitive”. For the same molecule, the “uric acid production in presence of inhibitor” value ([3]; 2 μM xanthine, 0.1 M KPB pH 7.4, 0 to 400 μM oxypurinol) was “uric acid production was evident even with 400 μM oxypurinol”, the “50% inhibition time of uric acid production” value [3, 13] was 9.0 min and the “stop time of uric acid production” value [3, 13] was 58.3 min. For the same molecule, the “50% inhibition time of uric acid production” value [3, 14] was 14.9 min, the “stop time of uric acid production” value [3, 14] was 89.0 min and the “50% inhibition time of uric acid production” value ([3]; xanthine 2 μM, inhibitor 50 μM, XO) was 49.5 min. The “ratio of 50% inhibition time, oxypurinol (min)/allopurinol (min)” value (from here on “ratio of 50% inhibition time, oxypurinol”) ([3]; xanthine 5 μM, inhibitor 2 μM) was 10.8, the “ratio of stop time, oxypurinol (min)/allopurinol (min)” value ([3]; xanthine 5 μM, inhibitor 2 μM) was 25.9 and the “50% inhibition time of uric acid production” value [3, 8] was 10.8 min. The “stop time of uric acid production” value [3, 8] was 77.7 min, the “50% inhibition time of uric acid production” value [3, 15] was 20.1 min and the “stop time of uric acid production” value [3, 15] was 119.4 min. The “50% inhibition time of uric acid production” value ([3]; xanthine 5 μM, inhibitor 50 μM, XO) was 38.3 min, the “ratio of 50% inhibition time, oxypurinol” value ([3]; xanthine 10 μM, inhibitor 2 μM) was 10.9 and the “ratio of stop time, oxypurinol (min)/allopurinol (min)” value ([3]; xanthine 10 μM, inhibitor 2 μM) was 14.7. The “50% inhibition time of uric acid production” value [3, 9] was 15.3 min, the “stop time of uric acid production” value [3, 9] was 101.4 min and the “50% inhibition time of uric acid production” value ([3]; xanthine 10 μM, inhibitor 10 μM, XO) was 20.8 min. For the same molecule, the “50% inhibition time of uric acid production” value ([3]; xanthine 10 μM, inhibitor 50 μM, XO) was 19.7 min, the “ratio of 50% inhibition time, oxypurinol” value ([3]; xanthine 50 μM, inhibitor 2 μM) was 8.6 and the “50% inhibition time of uric acid production” value [3, 10] was 32.7 min. For the same molecule, the “ratio of 50% inhibition time, oxypurinol” value ([3]; xanthine 50 μM, inhibitor 10 μM) was 10.8, the “50% inhibition time of uric acid production” value [3, 11] was 13.0 min and the “ratio of 50% inhibition time, oxypurinol” value ([3]; xanthine 50 μM, inhibitor 50 μM) was 34.0. The “50% inhibition time of uric acid production” value [3, 12] was 6.8 min, the “accumulation of xanthine from hypoxanthine” value ([4]; up to 500 μM inhibitor, XO and XDH) was “accumulation of xanthine was still significant even at 500 μM oxypurinol” and the “oxypurinol concentrations necessary to achieve target serum uric acid levels” value ([5]; ref Stamp et al. 5, 16) was > 100 µmol/L.
